Blank lines part the entries; values can stand above or below the substance they belong to.
How the values were obtained:
[1] = system: dexamethasone-suppressed male FVB/N mice; assay: in vivo Serum Corticosteroid Induction Assay (Example 1); parameters: species or system mouse; conditions: for in vivo activity, % corticosterone induction relative to mACTH(1-24): FIG. 5, method of Example 1; for Percent reduction in serum corticosteroid: relative to unmodified mACTH(1-24), 1 μg subcutaneously to dexamethasone-suppressed mice, blood one hour later
Method: An in vivo Serum Corticosteroid Induction Assay measures the level of corticosteroid or corticosterone in the blood stream of a subject. More specifically, the in vivo Serum Corticosteroid Induction Assay can include the following steps: first, an agent to suppress endogenous ACTH production was administered to a mouse subject, such as an intraperitoneal injection of dexamethasone; second, after waiting a suitable period of time for suppression of endogenous ACTH production (e.g., 1.5-2.0 hours), a test compound can be administered to the mouse by a suitable method, such as intraperitoneal or subcutaneous injection; and third, after waiting a suitable period of time (e.g., 1 hour) for action of the injected test compound, a blood sample can be taken from the subject and the level of serum corticosterone can be determined by a suitable method, such as a competitive radioimmunoassay using ^125I RIA kit (ICN, Costa Mesa, Calif.). Example 1 describes a murine in vivo Serum Corticosteroid Induction Assay in detail.
The corticosteroid or corticosterone secretion induced in vivo by an ACTH analog compound was compared to the level of corticosteroid secretion produced by an unmodified ACTH compound by measuring blood serum corticosteroid after administering either the ACTH or ACTH analog as test compounds. […] ACTH analog compositions with decreased function were identified by measuring corticosterone levels using standard radioimmunoassay (RIA) analysis on blood samples collected one hour after administering the mACTH(1-24) or ACTH analog compound to dexamethasone-suppressed mice. In FIG. 1, the potency of various ACTH analog peptides is expressed as percent induction of corticosterone, with mouse ACTH being 100%. […] The percent of corticosterone induction 12 of ACTH analog Compounds in Samples 2-10 are shown as a percentage of the concentration of serum corticosterone 20 measured for unmodified mACTH(1-24) in the in vivo Serum Corticosteroid Adrenal Induction Assay. The structural modifications and measured percentage reduction in serum measured for Samples 2-10 in FIG. 1 are shown in Table 3 below.
The in vivo Serum Corticosteroid Induction Assay was performed according the following method. First, two to three month-old male FVB/N mice from our colony, five per group, were injected intraperitoneally with dexamethasone (0.4 mg/0.1 ml PBS per mouse; Sigma, St. Louis, Mo.) to suppress their endogenous ACTH production. See Hajos, G T et al., “Studies of the potency of polypeptides with ACTH action by a new method based on continuous measurement of plasma corticosterone,” Steroids Lipids Res 3:225-228 (1972), Costa, J L, et al., “Mutational analysis of evolutionarily conserved ACTH residues,” Gen Comp Endocrinol, 136:12-16 (2004), and Karpac, J, et al., “Development, Maintenance, and Function of the Adrenal Gland in Early Postnatal Pro-opiomelanocortin Null Mutant Mice,” Endocrinology (2005), published online ahead of print Feb. 24, 2005, all of which are incorporated herein by reference.
Second, ninety to one hundred twenty minutes later, the dexamethasone-suppressed mice were injected subcutaneously between the shoulder blades with either unmodified mACTH(1-24) or one of several ACTH analog peptide compounds (1 μg/0.1 mL PBS/0.5% BSA), or with vehicle alone (control) (0.1 mL PBS/0.5% BSA). The following ACTH analog peptide compounds were administered to separate mice: 1: murine ACTH1-24; 2: V26F,E30K; 3: P19W,K21E,Y23R; 4: E30K,P36R; 5: ALA19-24; 6: V26F,P36R; 7: P19W, K21E; 8: P19W,K21A,delY23; 9: P19W,K21A; 10: KRRP16-19RAAW (AT814) (SEQ ID NO:20).
Third, one hour later, blood was collected within less than 1 minute from a small incision in the tail, and serum was flash-frozen and stored at −80° C. until assayed. Serum corticosterone was determined by competitive radioimmunoassay (^125I RIA kit; ICN, Costa Mesa, Calif.) according to the manufacturer's recommendations. One microliter of serum was used per assay sample. […]

[2] = system: explanted mouse adrenal membrane (adrenal halves); assay: in vitro Serum-free Adrenal Inhibition Assay (Example 4); format: cell-based; conditions: for in vitro activity, % corticosterone induction relative to mACTH(1-24): FIG. 5, method of Example 4; for in vitro activity compared with in vivo activity of the same analog: FIG. 5, in vitro Example 4, in vivo Example 1
Method: A series of separate in vitro Serum-Free Adrenal Corticosteroid Inhibition Assay were performed to identify ACTH analogs that inhibit ACTH-induced adrenal hormone production in vitro. The concentration of corticosterone was measured according to the procedure of Example 4 in a serum-free culture medium containing explanted adrenal membrane and unmodified ACTH, AT814 ACTH analog (SEQ ID NO:20), or a combination of ACTH and AT814 at 100 ng/mL each. […] Corticosterone levels were taken at 2.0 hours after the adrenal membrane was placed in the serum free M199 medium, and each corticosterone level in Table 5 is an average of five samples.
The in vitro Serum-free Adrenal Inhibition Assay was performed according the following method. First, adrenals were removed from mice, dissected free of fat, and cut in half. See Costa, J L, et al., “Mutational analysis of evolutionarily conserved ACTH residues,” Gen Comp Endocrinol. 136:12-16 (2004); and Weber, M M, et al., “Postnatal overexpression of insulin-like growth factor II in transgenic mice is associated with adrenocortical hyperplasia and enhanced steroidogenesis,” Endocrinology 140:1537-1543 (1999), incorporated herein by reference.
Second, each adrenal half was placed into an individual well of a 4-well dish, one dish per mouse. Adrenal halves were incubated at 5% CO2, 37° C., in 0.5 ml serum-free medium (M199; Invitrogen) for 30 minutes to equilibrate.
Third, medium was removed and replaced by 0.5 ml M199 containing ACTH, AT814, or both, at 100 ng/ml each; controls had no peptides added.
Fourth, after 2 hours of incubation, the medium was removed, pooled for all four halves from each mouse, and assayed by corticosterone using standard RIA methods. corticosterone was determined by competitive radioimmunoassay (^125I RIA kit; ICN, Costa Mesa, Calif.) according to the manufacturer's recommendations. One microliter of serum was used per assay sample. Samples were run in duplicates.

Substance: (K15A, R17A)mACTH(1-24) [ACTH analog 410]
in vivo activity, % corticosterone induction relative to mACTH(1-24) [1]: reduced
in vitro activity, % corticosterone induction relative to mACTH(1-24) [2]: reduced
in vitro activity compared with in vivo activity of the same analog [2]: greater than its in vivo activity

Substance: (K15Q, R17Q)mACTH(1-24) [ACTH analog 440]
in vivo activity, % corticosterone induction relative to mACTH(1-24) [1]: reduced
in vitro activity, % corticosterone induction relative to mACTH(1-24) [2]: reduced
in vitro activity compared with in vivo activity of the same analog [2]: greater than its in vivo activity

Substance: (K16A, R17A)mACTH(1-24) [ACTH analog 420]
in vivo activity, % corticosterone induction relative to mACTH(1-24) [1]: reduced
in vitro activity, % corticosterone induction relative to mACTH(1-24) [2]: reduced
in vitro activity compared with in vivo activity of the same analog [2]: greater than its in vivo activity

Substance: (K16A, R18A)mACTH(1-24) [ACTH analog 430]
in vivo activity, % corticosterone induction relative to mACTH(1-24) [1]: reduced
in vitro activity, % corticosterone induction relative to mACTH(1-24) [2]: reduced
in vitro activity compared with in vivo activity of the same analog [2]: greater than its in vivo activity

Substance: (P19W, K21A)mACTH (SYSMEHFRWGKPVGKKRRWVAVYPNVAENESAEAFPLEF; Corticotropin residues 1-24; UniProt P01193 124-162, looked up, variant P19W K21A) [Sample 9]
in vivo activity, % corticosterone induction relative to mACTH(1-24) [1]: reduced
in vitro activity, % corticosterone induction relative to mACTH(1-24) [2]: reduced
in vitro activity compared with in vivo activity of the same analog [2]: greater than its in vivo activity

Substance: (P19W, K21A, delY23)mACTH (SYSMEHFRWGKPVGKKRRWVAVPNVAENESAEAFPLEF; Corticotropin; UniProt P01193 124-162, looked up, variant P19W K21A Y23*) [Sample 8]
Percent reduction in serum corticosteroid [1]: 76.0%

serum half life ([1]; inferred from in vivo versus in vitro activity, FIG. 5): increased serum half life
Substance: (PVKVYP19-24AAAAA)mACTH [Sample 5]
in vivo activity, percent greater than the in vitro activity of unmodified mACTH ([1]; FIG. 5): about 50%
in vivo activity, % corticosterone induction relative to mACTH(1-24) [1]: greater relative to both mACTH and to other ACTH analogs
Percent reduction in serum corticosteroid [1]: 51%

Reference: US7919577B2, “Adrenocorticotropic hormone analogs and related methods” (Colorado Seminary, priority 2004, dated 2011)
